Assay results: patent US20060229358A1, “Pharmaceutical composition containing flavonoids” (Taipei Medical University, priority 2005, published 2006)

How the values were obtained:
[1] = test system: OVA-sensitized and challenged BALB/c mice, methacholine-induced Penh; experiment: Airway hyperresponsiveness in vivo, Penh by whole-body plethysmography (Assay III); parameters: species or system mouse; settings: i.p., FIG. 3A
Method: (§1) Sensitization, airway challenge, and allergen provocation was carried out as described by Kanehiro et al with some modifications. The female BALB/c mice from 8 to 12 week of age were obtained from National Laboratory Animal Center (Taiwan), and maintained on diets free of ovalbumin (OVA). Mice were sensitized by an intraperitoneal (i.p.) injection of 20 μg of OVA emulsified in 2.25 mg aluminum hydroxide gel in a total volume of 100 μl on days 0 and 14. For comparison, some mice were not sensitized, but received sham injection. All mice were challenged via the airway by OVA (1% in saline) for 30 min on days 28, 29, and 30 by ultrasonic nebulization. […] AHR was assessed on day 73 (48 h after 1% OVA provocation) for each group. […] The AHR was measured in unrestrained animals by barometric plethysmography using a whole-body plethysmograph (WBP) (Buxco, Troy, N.Y., USA). Mice were placed into the main chamber of the WBP and nebulized first with phosphate buffer solution (PBS), then with increasing doses (6.25-50 mg/ml) of methacholine (MCh) for 3 min for each nebulization, followed by readings of breathing parameters for 3 min after each nebulization with determination of enhanced pause (Penh) values. […] The number of inflammatory cells was counted using a hemacytometer (Hausser Sci., Horsham, Pa., USA). […]

[2] = test system: inflammatory cells in BALF of OVA-sensitized BALB/c mice; experiment: Inflammatory cells in BALF of OVA-sensitized mice (Assay III); assay type: in vivo, mouse; settings: FIG. 3B
Method: as §1

[3] = test system: cytokines (IL-2, IL-4, IL-5, TNF-α, IFN-γ) in BALF of OVA-sensitized BALB/c mice; experiment: Cytokines in BALF of OVA-sensitized mice (Assay III); assay type: in vivo, mouse; settings: FIG. 3C
Method: as §1

[4] = test system: OVA-induced contractions of sensitized guinea pig trachea; experiment: Cumulative OVA-induced contractions of isolated sensitized trachea in vitro (Assay IV); settings: FIG. 4
From the text: The guinea pigs were ready for use after day 25 [20]. Under a protocol approved by the Animal Care and Use Committee of Taipei Medical University, the tracheae of guinea pigs (Hartley) were sacrificed and removed therefrom. The tracheae were carefully trimmed off the excessive surrounding tissues and cut into six segments. Each segment consisted of three cartilage rings. All segments were cut open opposite the trachealis. […] The composition of the normal Krebs solution was (mM): […] The tissues were suspended in normal Krebs solution under an initial tension of 1.5 g and allowed to equilibrate for at least 1 h with washing at 15-min intervals. After the tissues were precontracted with KCl (60 mM) and washed with normal Krebs solution, OVA (0.1-100 μg/ml) was cumulatively added, and contractions were allowed to reach a steady state at each concentration. […] The tension of precontraction induced by KCl before experiment was set as 100%.

COc1ccc(C2CC(=O)c3c(O)cc(O)cc3O2)cc1O (centres unmarked) [Hesperetin]
Penh values compared with non-sensitized mice ([1]; 3~30 μmol/kg): not significantly different
Penh values induced by 50 mg/ml MCh ([1]; 10 and 30 μmol/kg, sensitized mice): significantly suppressed
enhancement of eosinophils in BALF ([2]; 3 μmol/kg i.p., compared with control group): significantly suppressed
enhancement of total inflammatory cells, macrophages, lymphocytes, neutrophils and eosinophils in BALF ([2]; 10 and 30 μmol/kg i.p.): significantly suppressed
level of IL-5 in BALF ([3]; 3 and 10 μmol/kg i.p.): not suppressed
enhancement of IL-2, IL-4, IL-5, TNF-α and IFN-γ levels in BALF ([3]; 3~30 μmol/kg, i.p.): significantly suppressed
OVA (both 10 and 100 μg/ml)-induced contractions ([4]; 30 μM preincubated 15 min): significantly antagonized
OVA (100 μg/ml)-induced contractions ([4]; 3~30 μM preincubated 15 min, standardized by 60 mM KCl): antagonized
